From patent publication US20160008333A1, “PROPHYLACTIC OR THERAPEUTIC AGENT FOR POSTERIOR OCULAR DISEASE CONTAINING TETRAHYDROPYRANYLAMINOCYCLOPENTYLCARBONYLTETRAHYDROPYRIDOPYRIDINE DERIVATIVE AS EFFECTIVE INGREDIENT” (SANTEN PHARMACEUTICAL CO., LTD., priority 2013, published 2016)

How the values were obtained:
Format in all cases: in vivo
[1] = test system: TNFα-induced retinal vascular hyperpermeability; assay: Rat model of TNFα-induced retinal vascular hyperpermeability, oral administration
Source text: TNFα is a cytokine which has been reported to increase its expression in proliferative diabetic retinopathy or at the vitreous body of retinal vein occlusion (Eye 2006; 20: 1366-1369, Jpn. J. Ophthalmol. 2011; 55: 256-63), and in a streptozocin-induced diabetes model, it has been reported that it participates in onset and progress of diabetic retinopathy through permeability enhancement or histopathological alteration of retinal vessel (Mol. Vis. 2009; 15: 1418-1428). Thus, by using a rat model of TNFα-induced retinal vascular hyperpermeability, usefulness of Compound A, the diastereomer I of Compound A and the diastereomer II of Compound A were evaluated.
A rat was intramuscularly administered 1 ml/kg of a mixed solution (7:1) comprising a 5% (W/V) ketamine hydrochloride injection solution and a 2% xylazine hydrochloride injection solution to perform general anesthesia, and a 0.5% (W/V) tropicamide-0.5% phenylephrine hydrochloride eye drop was dropped into eyes to perform mydriasis. Thereafter, 5 μL of TNFα (10 μg/ml) was injected into the vitreous body by using a 32G needle so as not to damage the crystalline lens and the retina. A rat of normal group was administered PBS (phosphate buffer) in place of the TNFα.
Compound A was dissolved in a 1% (W/V) methyl cellulose solution (prepared by dissolving methyl cellulose in purified water) so that it became 2 and 20 mg/ml to prepare a Compound A solution. The Compound A solution was orally administered with a dose of 10 and 100 mg/kg at 30 minutes before, 6 and 20 hours after administration of TNFα in the vitreous body. The diastereomer I of Compound A and the diastereomer II of Compound A were also similarly prepared and administered. Incidentally, the base administered group was similarly administered a 1% (W/V) methyl cellulose solution.
In addition, RS-504393 which is a CCR2 receptor antagonist was used those purchased from Tocris Bioscience Inc., and orally administered in the same manner with a dose of 3 and 30 mg/kg.
After 24 hours from administration of TNFα in the vitreous body, the rat was euthanized by exsanguination, and then, the eyeballs of the rat were excised so as not to mix with a blood. After extraction of the eyeballs, the vitreous body was rapidly collected by making a tiny cut at around the optic papilla using a surgical scalpel. The collected vitreous body was optionally diluted by purified water, and the protein concentration was measured by the Bradford method. The protein concentration of the vitreous body thus measured was used as an index of the retinal vascular permeability. Thereafter, according to Numerical formula 4, a suppressing rate (%) of the evaluated drug against the retinal vascular hyperpermeability caused by TNFα was calculated. […]

[2] = test system: thrombin-induced retinal vascular hyperpermeability; assay: Rat model of thrombin-induced retinal vascular hyperpermeability (vitreous protein concentration)
[3] = test system: choroidal neovascularization; assay: Krypton laser-induced rat choroidal neovascularization model (fluorescein fundus angiography); conditions: evaluated 7th day after photocoagulation
Experimental: By using a laser-induced rat choroidal neovascularization model (Invest. Ophthalmol. Vis. Sci., 40(2), 459-466 (1999)), usefulness of the compounds of the present invention was evaluated.
A rat was intramuscularly administered 1 ml/kg of a mixed solution (7:1) comprising a 5% (W/V) ketamine hydrochloride injection solution and a 2% xylazine hydrochloride injection solution to perform general anesthesia, and after a 0.5% (W/V) tropicamide-0.5% phenylephrine hydrochloride eye drop was dropped into eyes to perform mydriasis, photocoagulation was carried out by a krypton laser photocoagulation apparatus. The photocoagulation was carried out at the posterior part of eye ground, while avoiding thick retinal blood vessels, by focusing on the deep retina with eight spots per an eye in a scattered state (coagulation conditions: spot size 100 μm, output 100 mW, coagulation time 0.1 second). After the photocoagulation, the ocular fundus was photographed to confirm laser irradiated sites.
Compound A was mixed with a 1% (W/V) methyl cellulose solution (prepared by dissolving methyl cellulose in purified water) so that it became 0.4, 1.2, 4 and 12 mg/ml, and an administration solution containing Compound A was orally administered twice a day for 7 days from the surgery day including the surgery day of the photocoagulation with a dose of 2, 6, 20 and 60 mg/kg. Incidentally, to the base administered group was similarly administered a 1% (W/V) methyl cellulose solution.
At the 7th day after the photocoagulation, a rat was intramuscularly administered 1 ml/kg of a mixed solution (7:1) comprising a 5% (W/V) ketamine hydrochloride injection solution and a 2% xylazine hydrochloride injection solution to perform general anesthesia, and a 0.5% (W/V) tropicamide-0.5% phenylephrine hydrochloride eye drop was dropped into eyes to perform mydriasis, 0.1 ml of a 10% fluorescein solution was injected into a vein of penis to carry out fluorescein fundus angiography. A spot from which no leakage of fluorescence was admitted by the fluorescein fundus angiography was judged as negative (no neovascularization), and a spot from which leakage of fluorescence was admitted was judged as positive. In addition, when the photocoagulation portions from which a slight leakage of fluorescence was admitted were present two portions, it was judged as positive (neovascularization exists). Thereafter, according to Numerical formula 1, a rate of incidence of choroidal neovascularization (%) was calculated from a number of positive spot(s) to the eight spots to which the laser was irradiated, and a suppressing rate (%) of the evaluated drug was calculated in accordance with Numerical formula 2. Incidentally, a number of the samples of each administered group is 7 or 8. […]

[4] = test system: TNFα-induced retinal vascular hyperpermeability; assay: Rat model of TNFα-induced retinal vascular hyperpermeability, intravitreal administration; conditions: 100 μg/eye intravitreally immediately after intravitreal TNFα; vitreous protein at 24 h
Experimental: To investigate an effectiveness of Compound A by topical administration, the effect of intravitreal administration of Compound A on a rat model of TNFα-induced retinal vascular hyperpermeability was investigated. A model was prepared in the same manner as in Pharmacological test 3. Compound A was dissolved in a mixed solution of dimethylsulfoxide and PLA0020 with a ratio of 4: 1 so that it became 40 mg/ml to prepare a solution of Compound A. Immediately after intravitreal administration of TNFα, the solution of Compound A was intravitreally administered with a dose of 100 μg/eyes. Incidentally, to the base administered group, a mixed solution of dimethylsulfoxide and PLA0020 with a ratio of 4:1 was similarly administered. After 24 hours from intravitreal administration of TNFα, the rat was euthanized by exsanguination, and then, the eyeballs of the rat were excised so as not to mix with a blood. […] The collected vitreous body was optionally diluted by purified water, and the protein concentration was measured by the Bradford method. The protein concentration of the vitreous body thus measured was used as an index of the retinal vascular permeability. Thereafter, according to Numerical formula 4, a suppressing rate (%) of the evaluated drug against the retinal vascular hyperpermeability caused by TNFα was calculated. […]

[5] = 10 mg/kg intraperitoneally, vitreous protein 24 h after intravitreal thrombin

COC1COCCC1N[C@@H]1CC[C@@](C(=O)N2CCc3ncc(C(F)(F)F)cc3C2)(C(C)C)C1.O=C(O)CCC(=O)O (stereo partly drawn) [Compound A]
Retinal vascular permeability suppressing rate (%) ([1]; 10 mg/kg orally at 30 min before, 6 and 20 h after intravitreal TNFα, vitreous protein at 24 h): 63% | Retinal vascular permeability suppressing rate (%) ([1]; 100 mg/kg orally at 30 min before, 6 and 20 h after intravitreal TNFα, vitreous protein at 24 h): 88% | Retinal vascular permeability suppressing rate (%) ([2]; 6 mg/kg orally at 30 min before, 6 and 20 h after intravitreal thrombin, vitreous protein at 24 h): 15% | Suppressing rate (%) of incidence of choroidal neovascularization ([3]; 2 mg/kg orally twice a day for 7 days): 32.8% | Suppressing rate (%) of incidence of choroidal neovascularization ([3]; 6 mg/kg orally twice a day for 7 days): 39.5% | Suppressing rate (%) of incidence of choroidal neovascularization ([3]; 20 mg/kg orally twice a day for 7 days): 52.9% | Suppressing rate (%) of incidence of choroidal neovascularization ([3]; 60 mg/kg orally twice a day for 7 days): 62.7% | Retinal vascular permeability suppressing rate (%) [4]: 61%

C[N+](C)(Cc1ccc(NC(=O)c2ccc(Cl)c(Cl)c2)cc1)C1CCOCC1.[Cl-] [Compound B, N-[4-(3,4-dichlorobenzamido)benzyl]-N,N-dimethyl-N-(tetrahydropyran-4-yl)ammonium chloride]
Retinal vascular permeability suppressing rate (%) [2, 5]: −13%

O=C(/C=C/c1cc(F)cc(F)c1)N1CCC([C@@H](CO)N2CCC(c3c[nH]c4ncccc34)CC2)CC1 [Compound C, 2(S)-[1-[3-(3,5-difluorophenyl)-2(E)-propenoyl]piperidin-4-yl]-2-[4-(1H-pyrrolo[2,3-b]pyridin-3-yl)piperidin-1-yl]ethanol]
Retinal vascular permeability suppressing rate (%) [2, 5]: −1%

Cc1ccc2c(c1)C1(CCN(CCc3nc(-c4ccccc4)oc3C)CC1)OC(=O)N2 [RS-504393, reference compound]
Retinal vascular permeability suppressing rate (%) ([1]; 3 mg/kg orally, vitreous protein 24 h after intravitreal TNFα): 18% | Retinal vascular permeability suppressing rate (%) ([1]; 30 mg/kg orally, vitreous protein 24 h after intravitreal TNFα): −13%
